Tests used:
[1] = system: spontaneously hypertensive rats; test: Acute antihypertensive effects in conscious spontaneously hypertensive rats; assay type: in vivo; conditions: po mg/kg: compound 1 3, pinacidil 3, nifedipine 10, bisoprolol 60, captopril 40, means ± SD, 9-13 rats
Source text: Biological activity experiment 2. The acute antihypertensive effects of compound 1 in conscious spontaneously hypertensive rats.
The methods of biological activity experiment 2 were described by Long Chao-Liang et al: Long Chao-Liang, Wang Hai, Xiao Wen-Bin. Effects of pinacidil on, hypertensive vascular remodeling. Chin J Pharmacol Toxicol 1997; 11(1):42-46.

[2] = system: rats anesthetized with pentobarbital sodium; test: Antagonism of glibenclamide on the cardiovascular effects in anesthetized rats; assay type: in vivo, Wistar rats; conditions: for +dp/dtmax / DBP / HR / LVSP / MBP / SB / Vpm / −dp/dtmax: iv mg/kg: pinacidil 1.0, nifedipine 1.0, compound 1 0.5, means ± SE
Method: The methods of biological activity experiment 1 were as follows: Male Wistar rats, weighing 280±30 g were purchased from the experimental animal center of Academy of Military Medical Sciences. Rats were anesthetized with pentobarbital sodium (45 mg/kg) by peritoneal injection. A PE50 polyethylene catheter was inserted into the left ventricle through right carotid artery for cardiac function measurement with a pressure energe exchanger, wherein the signal is put into a SMUP-PC biosignal processing system. Cardiac functional parameters such as HR, LVSP, +dp/dtmax, −dp/dtmax and Vpm were recorded. Another two PE50 polyethylene catheters were inserted into the right femoral artery and vein respectively for blood pressure measurement wherein the artery cathether was linked to a four-channel physiology recorder (RM-6000) through a MPU-0.5A Type pressure energe exchanger, which recorded SBP, DBP and MBP, while the vein catheter was used for compound administration. The methods were described by Liu Wei et al: Liu Wei, Wang Hai, Xiao Wen-Bin.
The methods of Biological activity experiment 3 were the same as those described in the biological activity experiment 1.

[3] = target: T1, ATP-sensitive potassium channels in vascular smooth muscles (Rattus norvegicus, UniProt Q63563); test: Association and dissociation kinetics of [^3H]glibenclamide binding in aortic rings; set-up: species or system Wistar rat; conditions: drug M: compound 1 10^−4, pinacidil 10^−4, ATP 10^−2, ADP 10^−3, UDP 5 × 10^−3, Ade 10^−3
T1 construct: The aorta was cut into about 3-5 mm arterial rings and the vascular endothelium was scraped off; from tissue; host or cells: endothelium-removed aortic rings of male Wistar rats
Source text: Biological activity experiment 4. Allosteric regulation of novel compounds on ATP-sensitive potassium channels in vascular smooth muscles.
To study the allosteric regulation of compound 1 on ATP-sensitive potassium channels in vascular smooth muscles, the radio-labled-ligand was used in the biological activity experiment 4.
1. The allosteric regulation of compound 1 on the binding sites for the selective KATP blocker glibenclamide in vascular smooth muscles was studied as follows: After decapitated, the male Wistar rat (340±20 g) was immediately incised open the thoracic cavity. The aorta was dissected and immersed in the 4° C. buffer containing 10 mM HEPES to wash off the blood, then carefully extirpated the fat, peripheral connective tissues and thrombus. The aorta was cut into about 3-5 mm arterial rings and the vascular endothelium was scraped off with wet tampon. The arterial rings were blotted, weighted and transferred into the tubes containing proper amount of ice colded physiological saline buffer. […] At 5,10,15,20,30,60,90 and 120 min after incubation, 9 mL ice colded Tris buffer (50 mM) was added to terminate the reaction. After washing off the free and bound [^3H]-glibenclamide, the aorta was blotted, transferred to a scintillator, added 50 uL 30% H2O2 and reacted for 2 h at 80° C. After cooling, 2.5 mL ethyl glycol and 5 mL 1% B-BPD xylene were added in sequence, kept stationary for 8 h and measured under a scintillometer for cpm value. The resulting data were fit into a regression line with In[BEQ/(BEQ-Bt)]vs.t and the parameters for association kinetics were obtained. In the disassociation kinetics experiments, the aorta treated as described above and [^3H]-glibenclamide were incubated for 60 min at 25° C., and then 30 uM glibenclamide was added. 0,5,15,30,60,90 and 120 min later, the cpm values for the complex of [^3H]-glibenclamide and KATP were measured. The resulting data were fit into a regression line with In(B/BEQ)]vs.t and the parameters for disassociation kinetics were obtained. 2. The allosteric regulation of compound 1 on the binding sites for the selective KATP activator P1075 in vascular smooth muscles was studied with the method as described above, but some conditions should be changed as follows: the incubation temperature was 37° C. instead of 25° C.;P1075 was used instead of glibenclamide; In the association kinetics experiments, the time points for sampling were 5,10,15,20,30,45,60 and 90 min, while in the disassociation kinetics experiments, that were 1,3,5,10,20,30,45 and 60 min. Biological activity experiment 5. The effects of compound 1 on the specific binding of high selective activator [^3H]P1075 with ATP-sensitive potassium channels in vascular smooth muscles.

[4] = target: T1, ATP-sensitive potassium channels in vascular smooth muscles; test: Inhibition of specific binding of [^3H]P1075 in endothelium-removed rat aorta; set-up: species or system Wistar rat; conditions: [^3H] P1075 5 nmol L^−1, 90 minutes at 37° C., endothelium-removed rat aorta
[5] = A: after administration (30 min after pinacidil, 10 min nifedipine, 15 min compound 1), glibenclamide 20 iv pretreatment
[6] = B: before administration, glibenclamide 20 iv pretreatment ten minutes

T1 sequence (Q63563 1-1545 isoform Q63563-2): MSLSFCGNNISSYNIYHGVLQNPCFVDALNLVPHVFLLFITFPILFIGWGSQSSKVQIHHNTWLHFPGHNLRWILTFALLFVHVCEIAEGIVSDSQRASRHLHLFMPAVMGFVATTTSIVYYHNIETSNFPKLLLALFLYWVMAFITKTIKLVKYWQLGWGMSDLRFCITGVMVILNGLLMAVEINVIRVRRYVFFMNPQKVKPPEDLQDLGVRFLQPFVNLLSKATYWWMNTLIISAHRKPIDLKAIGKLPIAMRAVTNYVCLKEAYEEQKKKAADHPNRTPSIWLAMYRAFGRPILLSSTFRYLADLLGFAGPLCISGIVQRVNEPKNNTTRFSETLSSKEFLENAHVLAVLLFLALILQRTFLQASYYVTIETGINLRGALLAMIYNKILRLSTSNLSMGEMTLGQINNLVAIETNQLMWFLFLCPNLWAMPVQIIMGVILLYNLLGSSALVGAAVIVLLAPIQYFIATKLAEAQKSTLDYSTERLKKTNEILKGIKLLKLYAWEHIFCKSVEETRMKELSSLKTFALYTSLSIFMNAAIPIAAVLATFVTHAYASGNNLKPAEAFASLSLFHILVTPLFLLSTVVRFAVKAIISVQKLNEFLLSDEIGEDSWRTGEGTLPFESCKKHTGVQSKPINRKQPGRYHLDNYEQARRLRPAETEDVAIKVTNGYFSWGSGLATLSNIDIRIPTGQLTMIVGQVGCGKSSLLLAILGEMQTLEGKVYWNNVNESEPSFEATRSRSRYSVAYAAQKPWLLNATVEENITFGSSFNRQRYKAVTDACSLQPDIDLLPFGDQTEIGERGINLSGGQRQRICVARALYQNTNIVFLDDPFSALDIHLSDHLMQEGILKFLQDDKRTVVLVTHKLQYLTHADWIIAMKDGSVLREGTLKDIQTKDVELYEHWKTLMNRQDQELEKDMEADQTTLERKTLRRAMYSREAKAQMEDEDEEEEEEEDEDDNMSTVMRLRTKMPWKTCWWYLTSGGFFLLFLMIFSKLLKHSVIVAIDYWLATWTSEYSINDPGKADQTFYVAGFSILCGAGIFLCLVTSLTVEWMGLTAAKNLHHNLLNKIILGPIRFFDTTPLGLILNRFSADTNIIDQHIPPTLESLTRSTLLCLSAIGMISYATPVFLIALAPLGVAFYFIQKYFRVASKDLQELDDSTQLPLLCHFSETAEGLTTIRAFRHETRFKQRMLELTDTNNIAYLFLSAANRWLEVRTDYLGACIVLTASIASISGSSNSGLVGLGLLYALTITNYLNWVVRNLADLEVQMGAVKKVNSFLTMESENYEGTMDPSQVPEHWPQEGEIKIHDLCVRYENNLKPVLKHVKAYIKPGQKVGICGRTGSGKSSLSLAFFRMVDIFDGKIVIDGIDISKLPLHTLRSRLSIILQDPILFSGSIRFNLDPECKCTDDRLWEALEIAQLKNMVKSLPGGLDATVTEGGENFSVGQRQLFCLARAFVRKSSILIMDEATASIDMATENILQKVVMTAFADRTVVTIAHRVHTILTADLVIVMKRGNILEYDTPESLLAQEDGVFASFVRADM
T1 sequence (Q63664 whole entry partner): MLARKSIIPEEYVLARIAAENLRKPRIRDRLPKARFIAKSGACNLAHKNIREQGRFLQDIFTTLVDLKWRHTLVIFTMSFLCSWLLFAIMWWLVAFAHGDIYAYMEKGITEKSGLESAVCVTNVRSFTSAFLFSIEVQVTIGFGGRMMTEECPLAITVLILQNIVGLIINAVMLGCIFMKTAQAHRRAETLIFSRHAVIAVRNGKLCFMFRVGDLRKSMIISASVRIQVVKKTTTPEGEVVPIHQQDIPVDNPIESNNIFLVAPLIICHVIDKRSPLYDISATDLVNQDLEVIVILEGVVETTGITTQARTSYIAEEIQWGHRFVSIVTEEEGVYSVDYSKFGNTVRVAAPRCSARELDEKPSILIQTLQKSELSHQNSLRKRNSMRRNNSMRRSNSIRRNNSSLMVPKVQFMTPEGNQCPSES

In the case of `CC(N/C(=N\C#N)Nc1ccncc1)C(C)(C)C` (centres unmarked) [pinacidil], the “SBP at 1 h after administration” value ([1]; 1 h) is reported as 208 ± 5 mmHg, the “heart rates at 1 h” value ([1]; 1 h, in bpm (unit assumed)) is reported as 421 ± 17 and the “SBP at 3 h after administration” value ([1]; 3 h) is reported as 236 ± 5 mmHg. For the same compound, the “heart rates at 3 h” value ([1]; 3 h, in bpm (unit assumed)) was 400 ± 15, the “SBP at 5 h after administration” value ([1]; 5 h) was 241 ± 4 mmHg and the “heart rates at 5 h” value ([1]; 5 h, in bpm (unit assumed)) was 354 ± 14. The “SBP at 9 h after administration” value ([1]; 9 h) was 242 ± 5 mmHg, the “heart rates at 9 h” value ([1]; 9 h, in bpm (unit assumed)) was 365 ± 16 and the “SBP at 12 h after administration” value ([1]; 12 h) was 244 ± 5 mmHg. For the same compound, the “heart rates at 12 h” value ([1]; 12 h, in bpm (unit assumed)) was 352 ± 20, the “SBP at 24 h after administration” value ([1]; 24 h) was 244 ± 5 mmHg and the “heart rates at 24 h” value ([1]; 24 h, in bpm (unit assumed)) was 365 ± 15. The SBP base value ([1]; base value before administration) was 242 ± 5 mmHg, the “heart rates base value” ([1]; base value before administration, in bpm (unit assumed)) was 351 ± 19 and the “+dp/dtmax” value [2, 5] was 571 ± 33 kPa/a. It also gave a DBP [2, 5] of 67 ± 6 mmHg, an HR [2, 5] of 317 ± 25 bpm and an LVSP [2, 5] of 111 ± 9 mmHg. For the same compound, the MBP [2, 5] was 76 ± 7 mmHg, the SB [2, 5] was 91 ± 8 mmHg and the Vpm [2, 5] was 4.1 ± 0.5 /a. For the same compound, the “−dp/dtmax” value [2, 5] was 447 ± 73 kPa/a, the “+dp/dtmax” value [2, 6] was 673 ± 28 kPa/a and the DBP [2, 6] was 92 ± 5 mmHg. The HR [2, 6] was 353 ± 17 bpm, the LVSP [2, 6] was 124 ± 6 mmHg and the MBP [2, 6] was 104 ± 5 mmHg. The SB [2, 6] was 128 ± 5 mmHg, the Vpm [2, 6] was 4.3 ± 0.5 /a and the “−dp/dtmax” value [2, 6] was 536 ± 42 kPa/a. For the same compound, the “antagonism of the cardiovascular effects by glibenclamide (in words)” value ([2]; glibenclamide 20 mg/kg iv pretreatment) was “could aslo block”, the “Dissociation kinetics k2 of [^3H]glibenclamide binding” value ([3]; 25° C., control 0.72 ± 0.11) was 1.15 ± 0.27 ×10^2 nM^−1 · min^−1 and the “Dissociation kinetics Kd of [^3H]glibenclamide binding in presence of the drug” value ([3]; Kd of the radioligand, not of the drug, control 0.55 ± 0.14) was 2.95 ± 0.95 nM. The “Association kinetics k1 of [^3H]glibenclamide binding” value ([3]; [^3H]-glibenclamide 3 nM, 25° C., control 1.31 ± 0.14) was 0.39 ± 0.24 ×10^−2nM^−1 · min^−1, the “Association kinetics kobs of [^3H]glibenclamide binding” value ([3]; [^3H]-glibenclamide 3 nM, 25° C., control 4.65 ± 0.37, means ± SD, n = 4~10) was 2.32 ± 0.67 ×10^−2nM^−1 · min^−1 and the “Association kinetics kA of [^3H]glibenclamide binding” value ([3]; [^3H]-glibenclamide 3 nM, 25° C., control 181.90 ± 46.90) was 33.91 ± 22.43 ×10^−2nM^−1 · min^−1. The IC50 [4] was 200 ± 43.6 nM and the Ki ([4]; read-out: pKi for inhibition of specific binding of [^3H]P1075 (converted)) was 200 nM.
